Laboratory results published in PubChem BioAssay (NCI).
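Dose response: 5 concentrations. Exposure: 48 h. Format: 96-well plates. Endpoint: linear interpolation; highest concentration if not reached. GI50 = concentration required for 50% inhibition of growth. Definition used: TGI = concentration required for complete inhibition of growth.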

Columns and labels:
Assay in all cases: NCI tumour cell line growth inhibition, 48 h
[1] = system: RPMI-8226 leukemia
[2] = system: DU-145 prostate
[3] = system: ACHN renal
[4] = system: MOLT-4 leukemia
[5] = system: SR leukemia
[6] = system: K-562 leukemia
[7] = system: TK-10 renal
[8] = system: IGROV1 ovarian
[9] = system: SW-620 colon
[10] = system: NCI-H460 lung
[11] = system: MCF7 breast
[12] = system: SF-268 CNS
[13] = system: SNB-19 CNS
[14] = system: OVCAR-5 ovarian
[15] = system: SF-539 CNS
[16] = system: UACC-257 melanoma
[17] = system: EKVX NSCLC
[18] = system: HCC-2998 colon
[19] = system: LOX IMVI melanoma
[20] = system: HL-60(TB) leukemia
[21] = system: A498 renal
[22] = system: U251 CNS
[23] = system: 786-0 renal
[24] = system: CCRF-CEM leukemia
[25] = system: NCI-H522 lung
[26] = system: NCI-H23 lung
[27] = system: SK-MEL-2 melanoma
[28] = system: T-47D breast
[29] = system: UACC-62 melanoma
[30] = system: MDA-MB-435
[31] = system: MDA-MB-468 breast
[32] = system: HOP-62 NSCLC
[33] = system: A549 NSCLC
[34] = system: COLO 205 colon
[35] = system: HCT-116 colon
[36] = system: OVCAR-8 ovarian
[37] = system: RXF 393 renal
[38] = system: OVCAR-4 ovarian
[39] = system: SK-MEL-28 melanoma
[40] = system: KM12 colon
[41] = system: NCI-H226 lung
[42] = system: SK-MEL-5 melanoma
[43] = system: HS 578T breast
[44] = system: MALME-3M melanoma
[45] = system: HCT-15 colon
[46] = system: HT29 colon
[47] = system: UO-31 renal
[48] = system: SF-295 CNS
[49] = system: SN12C renal
[50] = system: OVCAR-3 ovarian
[51] = system: SNB-75 CNS
[52] = system: SK-OV-3 ovarian
[53] = system: M14 melanoma
[54] = system: BT-549 breast
[55] = system: CAKI-1 renal
[56] = system: HOP-92 NSCLC
[57] = system: MDA-MB-231 breast
[58] = system: PC-3 prostate

With CN(C(=O)c1ccc(C(F)(F)F)cc1C(F)(F)F)c1sc2c(c1C#N)CCC(=O)C2 the GI50 [1] was 2.82 µM, the TGI [1] was 13.3 µM and the GI50 [2] was 17.3 µM. For the same molecule, the TGI [2] was 31.3 µM, the GI50 [3] was 14.2 µM and the TGI [3] was 29.6 µM. For the same molecule, the GI50 [4] was 4.13 µM, the TGI [4] was 27.8 µM and the GI50 [5] was 2.64 µM. For the same molecule, the TGI [5] was 11 µM, the GI50 [6] was 2.7 µM and the TGI [6] was over 100 µM. For the same molecule, the GI50 [7] was 14.6 µM, the TGI [7] was 28 µM and the GI50 [8] was 11.3 µM. The TGI [8] was 25.7 µM, the GI50 [9] was 3.22 µM and the TGI [9] was 12.3 µM. For the same molecule, the GI50 [10] was 17.2 µM, the TGI [10] was 33.2 µM and the GI50 [11] was 14.6 µM. It also gave a TGI [11] of 31 µM, a GI50 [12] of 12.1 µM and a TGI [12] of 32.8 µM. The GI50 [13] was 12.4 µM, the TGI [13] was 26.8 µM and the GI50 [14] was 21.3 µM. For the same molecule, the TGI [14] was 39.6 µM, the GI50 [15] was 2.34 µM and the TGI [15] was 5.04 µM. It also gave a GI50 [16] of 16.3 µM, a TGI [16] of 32.8 µM and a GI50 [17] of 14.2 µM. The TGI [17] was 30.8 µM, the GI50 [18] was 15.1 µM and the TGI [18] was 29.5 µM. For the same molecule, the GI50 [19] was 4.09 µM, the TGI [19] was 15.5 µM and the GI50 [20] was 3.33 µM. For the same molecule, the TGI [20] was 25.6 µM, the GI50 [21] was 16.9 µM and the TGI [21] was 30.9 µM. It also gave a GI50 [22] of 1.98 µM, a TGI [22] of 4.68 µM and a GI50 [23] of 15.7 µM. The TGI [23] was 34.7 µM, the GI50 [24] was 2.73 µM and the TGI [24] was 14.6 µM. It also gave a GI50 [25] of 1.62 µM, a TGI [25] of 3.38 µM and a GI50 [26] of 6.94 µM. For the same molecule, the TGI [26] was 22.8 µM, the GI50 [27] was 14.3 µM and the TGI [27] was 31 µM. For the same molecule, the GI50 [28] was 4.43 µM, the TGI [28] was 30.4 µM and the GI50 [29] was 4.48 µM. The TGI [29] was 17 µM, the GI50 [30] was 15.7 µM and the TGI [30] was 30.5 µM. It also gave a GI50 [31] of 2.35 µM, a TGI [31] of 6.93 µM and a GI50 [32] of 16.1 µM. For the same molecule, the TGI [32] was 30.3 µM, the GI50 [33] was 18.1 µM and the TGI [33] was 41.8 µM. The GI50 [34] was 16 µM, the TGI [34] was 30.5 µM and the GI50 [35] was 3.65 µM. It also gave a TGI [35] of 14.4 µM, a GI50 [36] of 4.66 µM and a TGI [36] of 19 µM. It also gave a GI50 [37] of 2.74 µM, a TGI [37] of 10.1 µM and a GI50 [38] of 3 µM. For the same molecule, the TGI [38] was 10.3 µM, the GI50 [39] was 21.4 µM and the TGI [39] was 43.8 µM. For the same molecule, the GI50 [40] was 4.25 µM, the TGI [40] was 17.5 µM and the GI50 [41] was 16.7 µM. It also gave a TGI [41] of 40.9 µM, a GI50 [42] of 8.15 µM and a TGI [42] of 21.1 µM. It also gave a GI50 [43] of 3.92 µM, a TGI [43] of 28.7 µM and a GI50 [44] of 18.1 µM. The TGI [44] was 36.1 µM, the GI50 [45] was 3.09 µM and the TGI [45] was 11.6 µM. The GI50 [46] was 17.6 µM, the TGI [46] was 34.4 µM and the GI50 [47] was 3.15 µM. The TGI [47] was 13.7 µM, the GI50 [48] was 12.3 µM and the TGI [48] was 25.6 µM. For the same molecule, the GI50 [49] was 10.5 µM, the TGI [49] was 29.6 µM and the GI50 [50] was 2.4 µM. It also gave a TGI [50] of 6.1 µM, a GI50 [51] of 5.25 µM and a TGI [51] of 20.7 µM. It also gave a GI50 [52] of 15.3 µM, a TGI [52] of 28.9 µM and a GI50 [53] of 4.18 µM. For the same molecule, the TGI [53] was 19.2 µM, the GI50 [54] was 2.82 µM and the TGI [54] was 8.29 µM. For the same molecule, the GI50 [55] was 7.01 µM, the TGI [55] was 21.1 µM and the GI50 [56] was 5.35 µM. For the same molecule, the TGI [56] was 19.3 µM, the GI50 [57] was 13.1 µM and the TGI [57] was 35 µM. The GI50 [58] was 2.69 µM and the TGI [58] was 6.93 µM.
